Bounds are passed on as bounds.

For orientation: melting point means the temperature of the solid-liquid transition. On to `CC#CCOc1ccc(S(=O)(=O)N(C)C(CCCSc2ccc(Cl)cc2)C(=O)OC)cc1` (stereo unspecified), for which the melting point fell in the range of 88 to 89 °C.

`COc1ccc(CSc2nnc(-c3ccc4ncccc4c3)o2)cc1C(F)(F)F`: the melting point lay within 130 to 131 °C. `Cc1cc(-c2ccc(C(=N)NO)o2)ccc1Br` had a melting point of 239 °C. To `CC(C)(C)OC(=O)N1CCC(CS(=O)Cc2cc(C(F)(F)F)cc(C(F)(F)F)c2)(c2ccccc2)CC1` (stereo unspecified) belongs 123 to 134 °C; to `Cc1cc(-c2c[nH]c(C)n2)ccn1`, 115 to 117 °C; to `COc1c(N2CCC(NC(=O)OCc3ccccc3)C(C)(C)C2)c(F)cc2c(=O)c(C(=O)O)cn(C3CC3)c12` (stereo unspecified), 158 to 160 °C. To `CCn1c(=O)c(NC(=O)Nc2ccc(F)cc2F)c(-c2ccccc2Cl)c2cc(C)cc(C)c21` belongs 186 to 188 °C; to `Cc1c(-c2ccc(O)cc2)n(Cc2ccc(OCCCN3CCCCC3)cc2)c2ccc(O)cc12`, 125 to 130 °C. With `CCCCC(O)(Cn1ccnc1)c1ccc(Cl)cc1Cl` (stereo unspecified), the melting point was in the range of 78 to 80 °C. To `NC(=O)c1nc(-c2ccccn2)nc2c1[nH]c(=O)n2-c1ccccc1` belongs 347 to 349 °C; to `CN1C(=O)C[C@@H](c2ccccc2)[C@H]1C(=O)c1ccccc1`, 115 to 116 °C; to `N#CC1CN1C(=O)NC(=O)c1ccco1` (stereo unspecified), 148 to 150 °C. For the compound `CCOC(=O)c1cn2c(cc(OC(C)C)c3ccc(Cl)cc32)n1`, the melting point lay within 187 to 189 °C. For `CC(C)(Oc1ccc(COCc2ccc3cn(-c4ccc(C(F)(F)F)cc4)nc3c2)cc1)C(=O)O` the value was 129 to 131 °C; for `COc1ccc(CNc2n[nH]c3ncnc(Nc4cccc(Cl)c4)c23)cc1OC`, 228 to 232 °C; for `COCOc1ccccc1-c1ccc(-c2ccc(C(=O)O)cc2)cc1-c1ccc2c(c1)C(C)(C)CCC2(C)C`, 132 to 135 °C.

`O=C(NN1CCc2ccccc2C(Oc2ccc(C(F)(F)F)cc2)C1)C(F)(F)F` (stereo unspecified) had a melting point of 192 to 195 °C. For `CCOC(=O)c1c(OC)c2cc(Cl)ccc2c(=O)n1C` the value was 122 to 123 °C; for `Cc1c(C(F)(F)F)nn(-c2c(Cl)cc(C(F)(F)F)cc2Cl)c1N`, 97 to 100 °C.

In turn, `COC(=O)[C@H]1O[C@H]1C(=O)N(CC(=O)OC(C)(C)C)c1ccc(OC)cc1` returned a melting point of 89 °C. For `N#CCCNC(=O)c1cccc(-c2ccc3c(n2)C(Oc2ccc(Cl)cc2Cl)CC3)c1` (stereo unspecified) the value was 193 to 194 °C; for `Oc1ccc(Oc2ncc(C(F)(F)F)cc2Cl)cc1`, 70 to 72 °C; for `CCOC(=O)NNC(=O)NCCCC(=O)OC`, 95 to 96 °C. For `CNC(=O)C(=Cc1cccc(-c2ccc(C)c(C)c2)c1)NC(C)=O` the value was 224 °C; for `CCOC(=O)c1cnc(SC)nc1NCc1ccc(OC)c([N+](=O)[O-])c1`, 99 to 100 °C. To `CCCCC(=NNC(=O)c1ccccc1)c1ccncc1` belongs 142 °C; to `Cc1nnc(N2N=C(c3ccc([N+](=O)[O-])cc3)c3cc4c(cc3C[C@H]2C)OCO4)o1`, 202 to 204 °C. In turn, `CON(CCCCn1c(C)nc2c(N)nc3ccccc3c21)S(C)(=O)=O` had a melting point of 201 to 203 °C. To `Cn1c(COc2ccc(CC3SC(=O)N(C(c4ccccc4)(c4ccccc4)c4ccccc4)C3=O)cc2)nc2ccc(Sc3ccccc3)nc21` (stereo unspecified) belongs 90 to 95 °C; to `Cc1ccccc1NC(=O)CN1C[C@@H](C)N(S(=O)(=O)c2cccc(C#N)c2)[C@@H](C)C1`, 152 to 153 °C.

In turn, `CC(=CC(=O)c1cccnc1)N1CCCC1` gave a melting point of 116 to 118 °C. For `Nc1nc(Nc2ccc3nc[nH]c3c2)sc1C(=O)c1cc(Cl)sc1Cl` the value was over 300 °C; for `Cc1c(C(=O)O)cnn1-c1cccc(Cl)c1`, 145 °C; for `O=S(=O)(c1ccc(Cl)cc1)C(c1cc(F)ccc1F)C(O)CCCCO` (stereo unspecified), 105 to 107 °C. Compound `CN(C)c1ccc2c3c(cccc13)C(=O)c1ccccc1-2` displayed a melting point of 125 to 127 °C.

`O=C(O)CCc1oc(Sc2ccccn2)nc1-c1ccc(Cl)cc1` gave a melting point of 172 to 173 °C.

`CCOC(=O)C1=C(C)NC(N)=C(C(=O)OCC)C1c1cccc([N+](=O)[O-])c1` (stereo unspecified) had a melting point of 169 °C.

Consider `CC(Cl)(Cl)C(NC(=O)c1cccc(Cl)c1)NC(=NC#N)Nc1ccc(F)nc1` (stereo unspecified), for which the melting point was 124 to 125 °C. In turn, `O=C1CCC(N2C(=O)c3ccc(CNCc4cc5ccccc5o4)cc3C2=O)C(=O)N1` (stereo unspecified) showed a melting point of 133 to 135 °C. As for `CC(C)(C)OC(=O)N1C[C@@H]2SCCC(c3ccccc3)(c3ccccc3)[C@@H]2C1` (racemic), the melting point amounted to 162 °C. For `COc1cc(N)c(Cl)cc1C(=O)NCC1CCN(CCCS(=O)(=O)Cc2ccc(Cl)cc2)CC1` the value was 175 to 177 °C; for `O=C1CCC(C2CO2)N1Cc1ccccc1Cl` (stereo unspecified), 81 to 83 °C; for `COc1ccc(-c2cc(=O)[nH]nc2-c2ccc(OC)c(F)c2)cc1F`, 205 to 206 °C. For `CCOC(=O)c1coc(=O)cc1S(C)(=O)=O` the value was 95 to 97 °C; for `O=C(NCCO)c1cccc(-c2ccc3c(c2)N(c2ccc(Cl)cc2Cl)CC3)c1`, 140 to 141 °C. For `CC1Cc2c(O)cc(C(=O)O)cc2O1` (stereo unspecified) the value was 181 to 184 °C; for `O=C1N(CC2CCCO2)c2cccc(Br)c2C12COc1cc3c(cc12)CCO3` (stereo unspecified), 137 to 141 °C. Take `O=C(O)[C@H]1Cc2ccccc2CN1S(=O)(=O)c1ccc(-c2ccccc2)cc1`: the melting point was 195 to 202 °C.

On to `CCOC(=S)C(CC(=O)c1ccc(Oc2ccccc2)cc1)C(=O)CC` (stereo unspecified), for which the melting point fell in the range of 55 to 57 °C. To `CCNC(=O)c1ccc(N2CCN(Cc3cc4c(c(OCC)c3)OC(C)C(=O)N4)CC2)c(Cl)c1` (stereo unspecified) belongs 187 to 199 °C. `CCN(C)c1nsc(NC(=O)NC)c1C#N` had a melting point of 175 °C. For `Cc1oc(-c2ccccc2)nc1COc1ccc(CON=C2CC(C(=O)O)c3ccccc32)cc1` (stereo unspecified) the value was 148 to 149 °C; for `COc1ccc(Br)c2c1C1C(=O)N(C)C(=O)C1CC2` (stereo unspecified), 201 to 202 °C; for `COC(=O)c1c(C)cc2cc(OC)c(OC)cc2c1-c1ccnc(Cl)c1`, 133 to 136 °C. To `CCCCS(=O)(=O)Oc1ccc(CCOc2ccc(/C=C(\OCC)C(=O)O)cc2OC)cc1` belongs 94 °C; to `CC1CC2(NC(=O)NC2=O)c2cc(F)ccc2O1` (stereo unspecified), 233 to 235 °C; to `O=C(NCc1cccc([N+](=O)[O-])c1)c1[nH]c2ccc(Cl)cc2c1S(=O)(=O)c1ccccc1`, 253 to 254 °C. To `CC(=O)Oc1ccc2c(c1)Cc1cc(OC(C)=O)ccc1-2` belongs 168 °C. `CCc1noc(-c2cn(-c3cccc(OC4CCCC4)c3)cn2)n1` registered a melting point of 132 °C. For `O=C(C1CCCCC1)N1CC(=O)N2CCCc3ccccc3C2C1` (stereo unspecified) the value was 187 to 190 °C.

`COC(=O)C=Cc1ccc(C(=O)NC[C@H](NC(=O)OCc2ccccc2)C(=O)OC(C)(C)C)s1` returned a melting point of 98 °C. To `O=C(O)C1c2cc(F)ccc2-c2ccc(F)cc21` belongs 161 to 163 °C; to `C(=C\c1c[nH]c2ccccc12)/c1cc(/C=C/c2ccccc2OCc2ccccn2)[nH]n1`, 114 to 125 °C; to `O=C1c2ccc(O)cc2OCN1CCO[N+](=O)[O-]`, 131 to 133 °C. As to `C=C(C)COc1ccc(C(=O)C=Cc2c(Cl)cccc2Cl)c2oc3ccccc3c(=O)c12`, the melting point fell in the range of 135 to 137 °C.

Consider `Cc1cc(Br)cnc1NCCCNC1=NS(=O)N=C1NCc1ccc(F)cc1` (stereo unspecified), for which the melting point lay within 125 to 126 °C. For `COc1cc(Cl)c(C(=O)c2c(C)ccc(OC)c2OC(=O)Cc2ccccc2)c(Cl)c1` the value was 106 °C; for `O=c1c(Br)cc(Cl)cn1Cc1ccccc1`, 108 to 110 °C; for `COc1cccc([C@H]2SC[C@@H](C(=O)OC(C)(C)C)N2C(=O)CNC(=O)Nc2cccc(C(=O)O)c2)c1`, 125 °C.

In turn, `N#CCCNC(=O)c1cccc(-c2cccc(Oc3ccc(Cl)cc3)n2)c1` displayed a melting point of 143 to 144 °C. To `COc1ncc(OC)c(NC#N)n1` belongs 164 to 171 °C. In the case of `O=C(NCc1ccn(-c2cc3[nH]c(=O)c(=O)[nH]c3cc2[N+](=O)[O-])c1)NC1CCN(Cc2ccccc2)CC1`, the melting point is 234 to 237 °C. On to `COc1ccc(-c2c(NC(=O)Nc3ccc(F)cc3F)cnc3ccc(Cl)cc23)c(O)c1OC`, for which the melting point lay in the range of 218 to 220 °C. For `CC(C)(C)c1ccc(C(=O)Nc2cn3nc(NCc4ccncc4)ccc3n2)cc1` the value was 222 to 223 °C; for `CC(C)=CCOC1(C(F)(F)F)CN(C2CC2)C(=O)Nc2ccc(Cl)cc21` (stereo unspecified), 130 to 131 °C.

As for `OCCc1coc2c(OC3CCCCO3)cccc12` (stereo unspecified), the melting point was 74 to 76 °C. To `COc1cc2c(c(C(C)C)c1OC)CC(C)C=C2` (stereo unspecified) belongs 56 to 57 °C; to `Fc1ccc(-c2[nH]nc(-c3ccccc3)c2-c2ccncc2)cc1`, 265 to 267 °C.

Consider `Cc1c(C)c2c(c(C)c1NC(=O)CC(C)(C)C)C(O)(C1CCCCC1)C(C)(C)O2` (stereo unspecified), for which the melting point was in the range of 170 to 171 °C. To `CC(C)Cn1c(CN(C)C(N)=O)nc2c(N)nc3ccccc3c21` belongs 223 to 225 °C; to `COc1cc(C)nc(-n2cncn2)n1`, 142 to 143 °C; to `Nc1ncnc2c1c(-c1ccc(OCc3ccccc3)cc1)cn2-c1ccc(OCCn2ccnc2)cc1`, 105 to 107 °C. For `CC(C)(C)OC(=O)[C@@H]1CS[C@H](c2c(F)cccc2Cl)N1C(=O)CNC(=O)Nc1cccc(C(=O)O)c1` the value was 148 °C. To `COc1cccc2c(=O)n(C(C)(C)C(=O)OCC(=O)c3ccccc3)c(=O)[nH]c12` belongs 132 to 133 °C; to `CC1C(S(=O)(=O)c2ccccc2)CCCC12OCCO2` (stereo unspecified), 76 to 77 °C; to `CC1(Cc2ccccc2)OC(=O)Nc2ccc(-c3cccc(Cl)c3)cc21` (stereo unspecified), 187 to 188 °C.

For the origin of these results see a melting point compilation (Tetko et al.; mined from patent text by program, amines drawn as free bases though some values may be those of a salt).
